{
  "source": "paper PMC7523345",
  "about": "(Investigational new drugs, 2018)",
  "origin": "cited, not measured here",
  "key": {"[1]": {"test_system": "TNBC cells with NOTCH1 re-arrangements", "details": "in vitro and in vivo; cited from earlier work"}, "[2]": {"test_system": "TNBC cells with NOTCH2 rearrangement", "details": "cited from earlier work"}},
  "data": [
    {"smiles": "O=S1(=O)N[C@@]2(CN1CC(F)(F)F)[C@@H]1CC[C@H]2Cc2ccc(/C=C/CN3CCC(C(F)(F)F)CC3)cc2C1", "note": "[MRK-003]", "values": [
      {"measurement": "Sensitivity of TNBC cells with NOTCH1 re-arrangements", "setting": "[1]", "value": "sensitive"},
      {"measurement": "Sensitivity of TNBC cells with NOTCH2 rearrangement", "setting": "[2]", "value": "resistant"}
    ]}
  ]
}
